# According to article PMC5831360 (Nature chemical biology, 2017):
# “And” between values parts separate entries of the source, which are not always exact repeats. Equal values may be shown once.
# Experiments:
# [1] = system: Spindlin1-H3K4me3 interaction; settings: read-out: IC50, in vitro inhibition of Spindlin1-H3K4me3 interaction; AlphaLISA; cited from earlier work
# SPIN1 = settings: cited from earlier work
# recombinant SPIN1 = recombinant SPIN1 (Homo sapiens, UniProt Q9Y657); assay: In vitro thermal shift assay; type: binding; settings: 100 μM compound, 1 mg/mL SPIN1, Sypro Orange
# [2] = system: SPIN1 target genes (rRNA, IL1B, BST2, C1QTNF1, ALDH1A3, IFI44L) in T778 cells; assay: RT-qPCR of SPIN1-regulated genes after compound treatment; type: cell-based, human; settings: 4 days
# Tudor domains of 53BP1 [3] = molecular target: T1, Tudor domains of 53BP1 (Homo sapiens, UniProt Q12888); assay: Protein domain microarray probing with biotin-tagged compounds; type: binding; settings: biotinylated compound, 1 μM, Cy3-streptavidin
# [4] = molecular target: SPIN1-H3K4me3 interaction (Homo sapiens, UniProt Q9Y657); assay: Competition pulldown, bead-bound H3K4me3 peptide and GST-SPIN1; type: binding; settings: untagged compound, increasing concentrations
# [5] = molecular target: yeast Tudor domain (SPF30^sp) (Schizosaccharomyces pombe, UniProt O94519); assay: Protein domain microarray probing with biotin-tagged compounds; type: binding; settings: biotinylated compound, 1 μM, Cy3-streptavidin
# SPIN1 (SPIN1_50–262) = SPIN1 (SPIN1_50–262) (Homo sapiens, UniProt Q9Y657); assay: Isothermal titration calorimetry; type: binding; settings: read-out: dissociation constant (Kd) with SPIN1; ITC, 25 °C, pH 7.5
# subset of MBT domains = assay: Protein domain microarray probing with biotin-tagged compounds; type: binding, human; settings: biotinylated compound, 1 μM, Cy3-streptavidin
# [6] = molecular target: Spindlin1 (SPIN1), three Tudor domains (Homo sapiens, UniProt Q9Y657); assay: as above; type: binding; settings: biotinylated compound, 1 μM, Cy3-streptavidin
# GFP-SPIN1(FL) = GFP-SPIN1(FL) (Homo sapiens, UniProt Q9Y657); type: binding; settings: HEK293 whole cell lysate, bead-immobilized biotinylated compound
# PHF20L1 = assay: Protein domain microarray probing with biotin-tagged compounds; type: binding, human; settings: biotinylated compound, 1 μM, Cy3-streptavidin
# [7] = system: SPIN1 target genes in GFP-SPIN1 transfected T778 cells; assay: RT-qPCR of SPIN1 target genes after GFP-SPIN1 overexpression; type: cell-based, human; settings: 10 μM, 24 h after GFP-SPIN1 transfection
# Tudor domains of PHF20 [8] = molecular target: Tudor domains of PHF20 (Homo sapiens, UniProt Q9BVI0); assay: Protein domain microarray probing with biotin-tagged compounds; type: binding; settings: biotinylated compound, 1 μM, Cy3-streptavidin
# Target sequence in this assay (Q9BVI0 4-147): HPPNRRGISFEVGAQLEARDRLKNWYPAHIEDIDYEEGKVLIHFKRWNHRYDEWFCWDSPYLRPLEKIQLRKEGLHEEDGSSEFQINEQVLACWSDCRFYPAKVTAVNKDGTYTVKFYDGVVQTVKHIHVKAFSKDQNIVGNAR
# SPIN1-TCF4 interaction = SPIN1-TCF4 interaction (Homo sapiens, UniProt Q9Y657); assay: SPIN1-TCF4 interaction assay; type: binding
# [9] = molecular target: GFP-SPIN1 in transfected HeLa cells (Homo sapiens, UniProt Q9Y657); assay: Cellular thermal shift assay; type: cell-based; settings: 20 μM, overnight
# T778 liposarcoma cells = assay: RNA-seq of compound-treated versus SPIN1 knockdown cells; type: cell-based, human; settings: 10 μM, 3 days
# SPIN2a/b = assay: Chemiprecipitation of SPIN family members with tagged compound; type: binding
# MBT domains of L3MBTL3 = MBT domains of L3MBTL3 (Homo sapiens, UniProt Q96JM7); assay: Isothermal titration calorimetry; type: binding; settings: Kd for L3MBTL3, ITC counter screen
# SPIN4 = SPIN4 (Homo sapiens, UniProt Q56A73); assay: Chemiprecipitation of SPIN family members with tagged compound; type: binding
# [10] = system: GFP-SPIN1 recruitment to promoter regions of rDNA and IL1B in T778 cells; assay: α-GFP ChIP-qPCR of SPIN1 chromatin association; type: cell-based, human; settings: 10 μM, overnight
# Tudor domains of 53BP1 [11] = molecular target: T1, Tudor domains of 53BP1; assay: Isothermal titration calorimetry; type: binding; settings: Kd for 53BP1, ITC counter screen
# Tudor domains of PHF20 [12] = molecular target: Tudor domains of PHF20 (Homo sapiens, UniProt Q9BVI0); assay: Isothermal titration calorimetry; type: binding; settings: Kd for PHF20, ITC counter screen
# Target sequence in this assay (Q9BVI0 83-147 limits assumed): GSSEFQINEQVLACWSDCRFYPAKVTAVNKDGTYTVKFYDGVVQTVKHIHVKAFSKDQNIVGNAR
# MBT domains of L3MBTL1 = MBT domains of L3MBTL1 (Homo sapiens, UniProt Q9Y468); assay: Isothermal titration calorimetry; type: binding; settings: Kd for L3MBTL1, ITC counter screen
# GFP-53BP1 = GFP-53BP1 (Homo sapiens, UniProt Q12888); type: binding; settings: HEK293T whole cell lysate, bead-immobilized biotinylated compound
# Sequence of GFP-53BP1 (Q12888 1144-1709): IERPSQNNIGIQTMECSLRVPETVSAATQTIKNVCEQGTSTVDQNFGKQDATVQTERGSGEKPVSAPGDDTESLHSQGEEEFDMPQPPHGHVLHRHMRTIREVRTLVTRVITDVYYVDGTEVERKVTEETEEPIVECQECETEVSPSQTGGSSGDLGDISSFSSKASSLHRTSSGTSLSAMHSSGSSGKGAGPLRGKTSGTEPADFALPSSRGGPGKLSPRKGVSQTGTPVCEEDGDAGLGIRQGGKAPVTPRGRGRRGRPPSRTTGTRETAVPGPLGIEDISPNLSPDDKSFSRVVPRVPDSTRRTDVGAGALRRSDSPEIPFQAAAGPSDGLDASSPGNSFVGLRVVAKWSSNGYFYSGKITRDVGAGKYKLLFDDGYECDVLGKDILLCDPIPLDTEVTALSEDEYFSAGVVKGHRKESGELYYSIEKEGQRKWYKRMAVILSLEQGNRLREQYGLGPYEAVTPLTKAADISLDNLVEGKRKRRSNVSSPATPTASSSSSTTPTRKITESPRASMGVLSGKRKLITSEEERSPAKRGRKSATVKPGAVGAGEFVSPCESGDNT
# T1 sequence (Q12888 1484-1603 limits assumed): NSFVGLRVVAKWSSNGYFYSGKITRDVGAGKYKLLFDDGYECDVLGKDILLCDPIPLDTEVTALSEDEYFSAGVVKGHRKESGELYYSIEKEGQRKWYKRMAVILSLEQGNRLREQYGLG
# Sequence of MBT domains of L3MBTL3 (Q96JM7 232-543 limits assumed): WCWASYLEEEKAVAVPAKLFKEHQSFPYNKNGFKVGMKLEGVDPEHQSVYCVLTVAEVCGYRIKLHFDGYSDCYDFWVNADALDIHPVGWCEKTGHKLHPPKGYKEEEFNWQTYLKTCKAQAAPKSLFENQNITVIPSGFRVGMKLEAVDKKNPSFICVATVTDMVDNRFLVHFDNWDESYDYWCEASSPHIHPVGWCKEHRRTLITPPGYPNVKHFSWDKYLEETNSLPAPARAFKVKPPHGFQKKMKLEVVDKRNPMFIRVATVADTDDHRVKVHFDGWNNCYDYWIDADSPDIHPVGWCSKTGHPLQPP
# Sequence of MBT domains of L3MBTL1 (Q9Y468 274-585 limits assumed): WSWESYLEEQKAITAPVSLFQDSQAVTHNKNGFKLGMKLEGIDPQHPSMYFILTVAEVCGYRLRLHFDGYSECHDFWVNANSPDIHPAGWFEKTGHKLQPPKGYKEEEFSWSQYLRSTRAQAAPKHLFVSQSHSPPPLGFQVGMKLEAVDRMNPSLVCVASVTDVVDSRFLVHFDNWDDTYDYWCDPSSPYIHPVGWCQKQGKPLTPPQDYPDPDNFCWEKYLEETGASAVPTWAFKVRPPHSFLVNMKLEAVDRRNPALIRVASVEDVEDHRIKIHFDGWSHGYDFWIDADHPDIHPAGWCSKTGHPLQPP
# Sequence of SPIN1-H3K4me3 interaction (Q9Y657 50-262): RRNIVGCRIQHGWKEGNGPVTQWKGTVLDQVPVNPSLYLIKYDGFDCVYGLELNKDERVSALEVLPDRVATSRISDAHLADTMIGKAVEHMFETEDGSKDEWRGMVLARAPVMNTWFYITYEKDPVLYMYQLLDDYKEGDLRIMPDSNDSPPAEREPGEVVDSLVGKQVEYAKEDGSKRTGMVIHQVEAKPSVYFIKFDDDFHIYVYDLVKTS
# Sequence of GFP-SPIN1 in transfected HeLa cells (Q9Y657 whole entry): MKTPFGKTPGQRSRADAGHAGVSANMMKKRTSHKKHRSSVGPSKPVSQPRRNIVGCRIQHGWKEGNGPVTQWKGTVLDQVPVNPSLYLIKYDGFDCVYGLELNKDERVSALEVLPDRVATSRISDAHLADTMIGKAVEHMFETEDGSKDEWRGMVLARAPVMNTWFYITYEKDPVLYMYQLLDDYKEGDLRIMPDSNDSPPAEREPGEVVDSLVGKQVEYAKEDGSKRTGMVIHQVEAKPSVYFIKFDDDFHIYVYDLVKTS
# Sequence of recombinant SPIN1 (Q9Y657 50-262): as the sequence (Q9Y657 50-262) above
# Sequence of SPIN1 (SPIN1_50–262) (Q9Y657 50-262): as above
# Sequence of SPIN1-TCF4 interaction (Q9Y657 whole entry): as the sequence (Q9Y657 whole entry) above
# Sequence of GFP-SPIN1(FL) (Q9Y657 whole entry, the tested form may be a part): as the sequence (Q9Y657 whole entry) above
# Sequence of Spindlin1 (SPIN1), three Tudor domains (Q9Y657 whole entry, the tested form may be a part): as the sequence (Q9Y657 whole entry) above
# Sequence of SPIN4 (Q56A73 whole entry): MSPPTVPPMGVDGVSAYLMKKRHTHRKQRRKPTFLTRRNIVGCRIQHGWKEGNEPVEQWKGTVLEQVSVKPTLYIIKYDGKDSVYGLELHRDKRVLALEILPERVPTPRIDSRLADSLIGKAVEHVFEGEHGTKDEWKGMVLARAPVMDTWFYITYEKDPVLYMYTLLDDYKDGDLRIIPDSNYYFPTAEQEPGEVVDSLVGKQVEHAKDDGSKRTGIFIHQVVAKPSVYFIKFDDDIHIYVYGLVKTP
# Sequence of yeast Tudor domain (SPF30^sp) (O94519 76-139 limits assumed): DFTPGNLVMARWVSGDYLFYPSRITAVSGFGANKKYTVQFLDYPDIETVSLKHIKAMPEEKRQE
smiles,measurement,setting,value
COc1cc2c(cc1OCCCN1CCCC1)N=C(N)C21CCC1 [A366],IC50,[1],~0.2 µM
same,cell-based activity,SPIN1,100 µM
O=C(c1ccc(C(=O)N2CCC(CCN3CCCC3)CC2)c(Nc2ccccc2)c1)N1CCC(CCN2CCCC2)CC1 [EML405],increase of melting temperature of SPIN1,recombinant SPIN1,5 °C
same,expression levels of six SPIN1-regulated candidate genes,[2]; 20 μM,decrease in the expression levels of all six candidate genes
same,binding to Tudor domains of 53BP1 on protein domain microarray,Tudor domains of 53BP1 [3],bound strongly
same,inhibition of H3K4me3 peptide - GST-SPIN1 interaction,[4],higher concentrations of EML405 than EML631–633 were needed to inhibit the interaction
same,binding to yeast Tudor domain SPF30^sp on protein domain microarray,[5],bound strongly
same,Kd,SPIN1 (SPIN1_50–262),15 µM
same,binding to a subset of MBT domains on protein domain microarray,subset of MBT domains,bound strongly
same,binding to Spindlin1 on protein domain microarray,[6],bound strongly
same,pulldown of GFP-SPIN1 by tagged compound,GFP-SPIN1(FL),detected the pulldown of GFP-SPIN1
same,binding to PHF20L1 on protein domain microarray,PHF20L1,bound strongly
same,SPIN1-overexpression-elevated expression of target genes,[7],dramatically attenuated
same,binding to Tudor domains of PHF20 on protein domain microarray,Tudor domains of PHF20 [8],bound strongly
same,block of SPIN1-TCF4 interaction,SPIN1-TCF4 interaction,blocked this interaction
same,stabilization of GFP-SPIN1 at high temperatures (CETSA),[9],stabilization
O=C(c1ccc(C(=O)N2CCC(CCN3CCCC3)CC2)c(Nc2ccc(OCN3CCCC3)cc2)c1)N1CCC(CCN2CCCC2)CC1 [EML631],transcripts down regulated in both SPIN1 knockdown and compound-treated cells,T778 liposarcoma cells,655
same,expression levels of six SPIN1-regulated candidate genes,[2]; 10 μM,decrease in the expression levels of all six candidate genes
same,pulldown of SPIN2a/b by tagged compound,SPIN2a/b,reduced pulldown
same,Kd,MBT domains of L3MBTL3,< 100 µM and > 100 µM
same,interaction of tagged compound with SPIN4,SPIN4,no interaction
same,GFP-SPIN1 recruitment to promoter regions of rDNA and IL1B,[10],recruitment was blocked
same,Kd,Tudor domains of 53BP1 [11],< 100 µM and > 100 µM
same,Kd,Tudor domains of PHF20 [12],< 100 µM and > 100 µM
same,SPIN1-overexpression-elevated expression of target genes,[7],dramatically attenuated
same,Kd,MBT domains of L3MBTL1,< 100 µM and > 100 µM
"O=C(c1ccc(C(=O)N2CCC(N3CCCC3)CC2)c(Nc2ccccc2)c1)N1CCC(N2CCCC2)CC1 [UNC1215, reference compound]",inhibition of H3K4me3 peptide - GST-SPIN1 interaction,[4],not active
same,interaction of tagged compound with GFP-53BP1,GFP-53BP1,able to interact with GFP-53BP1
same,stabilization of GFP-SPIN1 at high temperatures (CETSA),[9],not with UNC1215
